Data: EP0525960B1, “Use of rapamycin for the treatment of adult T-cell leukemia/lymphoma” (AMERICAN HOME PRODUCTS CORPORATION, priority 1991, dated 1993)

How the values were obtained:
Format in all cases: cell-based
[1] = system: BL; experiment: Inhibition of ATL cell proliferation (tritiated thymidine incorporation); conditions: Homo sapiens, 24 hours, read-out: PERCENT INHIBITION OF ATL CELL PROLIFERATION
Protocol: (§1) The effect of rapamycin on ATL was established in an in vitro standard pharmacological test procedure using ten human HTLV-1 transformed T-cell lines cultured from ATL patients. These cell lines are presently the best models for ATL in humans. Cyclosporin A (CsA) was also evaluated for the purpose of comparison. The procedure used and results obtained are described below.
(§2) ATL cell lines were established according to known literature procedures. ATL5S, ATL3I, and ATL1K were established according to the method of Hoshino [Proc. Natl. Acad. Sci, 80: 6061(1983)]. The cell lines 31008, 31009, 31016 and AT(EGG) were established from peripheral blood of HTLV-1 infected individuals via co-culture with cord blood lymphocytes. The cell line MALN was isolated from lymphoid tumor tissue of an HTLV-1 infected ATL patient seen at Jackson Memorial/University of Miami Medical Center. [Harrington, W.J., Jr., J. Acq. Imm. Def. Dis., 4: 284 (1991)]. The primary cultures BL and GP were initiated from peripheral blood of ATL patients. The MALN, BL, and GP cell lines were initiated without co-cultivation.
(§3) Cells were adjusted to a concentration of 1x10⁶ cells/mL in RPMI 1640 with 15% fetal bovine serum and were supplemented with 50 U/mL penicillin, 50 µg/mL streptomycin, and 2 mM glutamine. […] Drug concentrations evaluated ranged from 1µM to 100 fM. Cultures were incubated at 37°C, 5% CO₂ for 24 hours followed by a 4 hr. pulse with 0.5 µCi of tritiated thymidine. Thymidine incorporation was measured by liquid scintillation counting, and the results expressed in counts per minute (cpm). The results obtained from the mean of four evaluations at each concentration were compared with control values to determine percent inhibition. The following formula was used to calculate the percent inhibition: Percent Inhibition =(cpm[no drug] - cpm[drug])/(cpm[no drug])x 100 [formula] The percent inhibition obtained with rapamycin is shown in the following table.

[2] = system: ATL1K; experiment: as above; conditions: Homo sapiens, 24 hours, read-out: PERCENT INHIBITION OF ATL CELL PROLIFERATION
Protocol: as §1, §2, §3

[3] = system: 31008; experiment: as above; conditions: Homo sapiens, 24 hours, read-out: PERCENT INHIBITION OF ATL CELL PROLIFERATION
Protocol: as §1, §2, §3

[4] = system: 31016; experiment: as above; conditions: Homo sapiens, 24 hours, read-out: PERCENT INHIBITION OF ATL CELL PROLIFERATION
Protocol: as §1, §2, §3

[5] = system: ATL3I; experiment: as above; conditions: Homo sapiens, 24 hours, read-out: PERCENT INHIBITION OF ATL CELL PROLIFERATION
Protocol: as §1, §2, §3

[6] = system: MALN; experiment: as above; conditions: Homo sapiens, 24 hours, read-out: PERCENT INHIBITION OF ATL CELL PROLIFERATION
Protocol: as §1, §2, §3

[7] = system: GP; experiment: as above; conditions: Homo sapiens, 24 hours, read-out: PERCENT INHIBITION OF ATL CELL PROLIFERATION
Protocol: as §1, §2, §3

[8] = system: ATEGG; experiment: as above; conditions: Homo sapiens, 24 hours, read-out: PERCENT INHIBITION OF ATL CELL PROLIFERATION
Protocol: as §1, §2, §3

[9] = system: 31009; experiment: as above; conditions: Homo sapiens, 24 hours, read-out: PERCENT INHIBITION OF ATL CELL PROLIFERATION
From the text: as §2
(§4) Cells were adjusted to a concentration of 1x10⁶ cells/mL in RPMI 1640 with 15% fetal bovine serum and were supplemented with 50 U/mL penicillin, 50 µg/mL streptomycin, and 2 mM glutamine. […] Drug concentrations evaluated ranged from 1µM to 100 fM. Cultures were incubated at 37°C, 5% CO₂ for 24 hours followed by a 4 hr. pulse with 0.5 µCi of tritiated thymidine. Thymidine incorporation was measured by liquid scintillation counting, and the results expressed in counts per minute (cpm).

[10] = system: ATL5S; experiment: as above; conditions: Homo sapiens, 24 hours, read-out: PERCENT INHIBITION OF ATL CELL PROLIFERATION
From the text: as §2, §4

[11] = system: ten human HTLV-1 transformed T-cell lines; experiment: Inhibition of ATL cell proliferation, summary over the panel of ten cell lines; conditions: in 4 of the cell lines at a concentration of 1 nM, read-out: reduction in proliferation
Protocol: as §1
as §2, with “The MALN, BL, and GP cell lines were initiated without co-cultivation.” left out
as §4, with “Cultures were incubated at 37°C, 5% CO₂ for 24 hours followed by a 4 hr. pulse with 0.5 µCi of tritiated thymidine.” left out, “(cpm). […]” for “(cpm).”

With `CO[C@H]1C[C@@H]2CC[C@@H](C)[C@@](O)(O2)C(=O)C(=O)N2CCCC[C@H]2C(=O)O[C@H]([C@H](C)C[C@@H]2CC[C@@H](O)[C@H](OC)C2)CC(=O)[C@H](C)/C=C(\C)[C@@H](O)[C@@H](OC)C(=O)[C@H](C)C[C@H](C)/C=C/C=C/C=C/1C` [Rapamycin] the inhibition at 1 pM ([1]; Rapamycin Concentration 1 pM) was 56%, the inhibition at 10 pM ([1]; Rapamycin Concentration 10 pM) was 55% and the inhibition at 0.0001 µM ([1]; Rapamycin Concentration 100 pM) was 65%. For the same molecule, the inhibition at 0.001 µM ([1]; Rapamycin Concentration 1 nM) was 73%, the inhibition at 0.01 µM ([1]; Rapamycin Concentration 10 nM) was 76% and the inhibition at 0.1 µM ([1]; Rapamycin Concentration 100 nM) was 79%. For the same molecule, the inhibition at 1 µM ([1]; Rapamycin Concentration 1 µM) was 80%, the inhibition at 100 fM ([1]; Rapamycin Concentration 100 fM) was 51% and the inhibition at 1 pM ([2]; Rapamycin Concentration 1 pM) was 15%. For the same molecule, the inhibition at 10 pM ([2]; Rapamycin Concentration 10 pM) was 12%, the inhibition at 0.0001 µM ([2]; Rapamycin Concentration 100 pM) was 23% and the inhibition at 0.001 µM ([2]; Rapamycin Concentration 1 nM) was 26%. For the same molecule, the inhibition at 0.01 µM ([2]; Rapamycin Concentration 10 nM) was 18%, the inhibition at 0.1 µM ([2]; Rapamycin Concentration 100 nM) was 32% and the inhibition at 1 µM ([2]; Rapamycin Concentration 1 µM) was 19%. It also gave an inhibition at 100 fM ([2]; Rapamycin Concentration 100 fM) of 15%, an inhibition at 1 pM ([3]; Rapamycin Concentration 1 pM) of 30% and an inhibition at 10 pM ([3]; Rapamycin Concentration 10 pM) of 31%. It also gave an inhibition at 0.0001 µM ([3]; Rapamycin Concentration 100 pM) of 45%, an inhibition at 0.001 µM ([3]; Rapamycin Concentration 1 nM) of 54% and an inhibition at 0.01 µM ([3]; Rapamycin Concentration 10 nM) of 58%. For the same molecule, the inhibition at 0.1 µM ([3]; Rapamycin Concentration 100 nM) was 68%, the inhibition at 1 µM ([3]; Rapamycin Concentration 1 µM) was 69% and the inhibition at 100 fM ([3]; Rapamycin Concentration 100 fM) was 29%. For the same molecule, the inhibition at 1 pM ([4]; Rapamycin Concentration 1 pM) was 50%, the inhibition at 10 pM ([4]; Rapamycin Concentration 10 pM) was 47% and the inhibition at 0.0001 µM ([4]; Rapamycin Concentration 100 pM) was 49%. It also gave an inhibition at 0.001 µM ([4]; Rapamycin Concentration 1 nM) of 48%, an inhibition at 0.01 µM ([4]; Rapamycin Concentration 10 nM) of 49% and an inhibition at 0.1 µM ([4]; Rapamycin Concentration 100 nM) of 56%. For the same molecule, the inhibition at 1 µM ([4]; Rapamycin Concentration 1 µM) was 59%, the inhibition at 100 fM ([4]; Rapamycin Concentration 100 fM) was 44% and the inhibition at 1 pM ([5]; Rapamycin Concentration 1 pM) was 11%. The inhibition at 10 pM ([5]; Rapamycin Concentration 10 pM) was 6%, the inhibition at 0.0001 µM ([5]; Rapamycin Concentration 100 pM) was 11% and the inhibition at 0.001 µM ([5]; Rapamycin Concentration 1 nM) was 18%. For the same molecule, the inhibition at 0.01 µM ([5]; Rapamycin Concentration 10 nM) was 15%, the inhibition at 0.1 µM ([5]; Rapamycin Concentration 100 nM) was 17% and the inhibition at 1 µM ([5]; Rapamycin Concentration 1 µM) was 28%. It also gave an inhibition at 100 fM ([5]; Rapamycin Concentration 100 fM) of 7%, an inhibition at 1 pM ([6]; Rapamycin Concentration 1 pM) of 36% and an inhibition at 10 pM ([6]; Rapamycin Concentration 10 pM) of 26%. For the same molecule, the inhibition at 0.0001 µM ([6]; Rapamycin Concentration 100 pM) was 37%, the inhibition at 0.001 µM ([6]; Rapamycin Concentration 1 nM) was 43% and the inhibition at 0.01 µM ([6]; Rapamycin Concentration 10 nM) was 41%. It also gave an inhibition at 0.1 µM ([6]; Rapamycin Concentration 100 nM) of 54%, an inhibition at 1 µM ([6]; Rapamycin Concentration 1 µM) of 55% and an inhibition at 100 fM ([6]; Rapamycin Concentration 100 fM) of 36%. For the same molecule, the inhibition at 1 pM ([7]; Rapamycin Concentration 1 pM) was 20%, the inhibition at 10 pM ([7]; Rapamycin Concentration 10 pM) was 14% and the inhibition at 0.0001 µM ([7]; Rapamycin Concentration 100 pM) was 39%. For the same molecule, the inhibition at 0.001 µM ([7]; Rapamycin Concentration 1 nM) was 42%, the inhibition at 0.01 µM ([7]; Rapamycin Concentration 10 nM) was 46% and the inhibition at 0.1 µM ([7]; Rapamycin Concentration 100 nM) was 46%. The inhibition at 1 µM ([7]; Rapamycin Concentration 1 µM) was 54%, the inhibition at 100 fM ([7]; Rapamycin Concentration 100 fM) was 23% and the inhibition at 1 pM ([8]; Rapamycin Concentration 1 pM) was 48%. The inhibition at 10 pM ([8]; Rapamycin Concentration 10 pM) was 44%, the inhibition at 0.0001 µM ([8]; Rapamycin Concentration 100 pM) was 49% and the inhibition at 0.001 µM ([8]; Rapamycin Concentration 1 nM) was 53%. For the same molecule, the inhibition at 0.01 µM ([8]; Rapamycin Concentration 10 nM) was 45%, the inhibition at 0.1 µM ([8]; Rapamycin Concentration 100 nM) was 60% and the inhibition at 1 µM ([8]; Rapamycin Concentration 1 µM) was 58%. The inhibition at 100 fM ([8]; Rapamycin Concentration 100 fM) was 44%, the inhibition at 1 pM ([9]; Rapamycin Concentration 1 pM) was 59% and the inhibition at 10 pM ([9]; Rapamycin Concentration 10 pM) was 47%. For the same molecule, the inhibition at 0.0001 µM ([9]; Rapamycin Concentration 100 pM) was 61%, the inhibition at 0.001 µM ([9]; Rapamycin Concentration 1 nM) was 68% and the inhibition at 0.01 µM ([9]; Rapamycin Concentration 10 nM) was 67%. It also gave an inhibition at 0.1 µM ([9]; Rapamycin Concentration 100 nM) of 70%, an inhibition at 1 µM ([9]; Rapamycin Concentration 1 µM) of 71% and an inhibition at 100 fM ([9]; Rapamycin Concentration 100 fM) of 60%. For the same molecule, the inhibition at 1 pM ([10]; Rapamycin Concentration 1 pM) was 14%, the inhibition at 10 pM ([10]; Rapamycin Concentration 10 pM) was 38% and the inhibition at 0.0001 µM ([10]; Rapamycin Concentration 100 pM) was 47%. It also gave an inhibition at 0.001 µM ([10]; Rapamycin Concentration 1 nM) of 48%, an inhibition at 0.01 µM ([10]; Rapamycin Concentration 10 nM) of 49% and an inhibition at 0.1 µM ([10]; Rapamycin Concentration 100 nM) of 58%. It also gave an inhibition at 1 µM ([10]; Rapamycin Concentration 1 µM) of 59%, an inhibition at 100 fM ([10]; Rapamycin Concentration 100 fM) of 36% and an inhibition at 0.001 µM [11] of 50%.
